The values below come from patent US20260347338A1, “PYRIMIDINE/PYRIDINE DERIVATIVES OR SALTS THEREOF AND PHARMACEUTICAL COMPOSITIONS COMPRISING THE SAME” (YUHAN CORPORATION, priority 2023, published 2026).

The target of the assay is T1, human recombinant HPK1 (Homo sapiens, UniProt Q92918).
T1 construct: purchased BPS Bioscience
Put plainly: Inhibitory activity against human recombinant HPK1 (TR-FRET). Type of assay: biochemical. As to conditions: ULight-p70S6K peptide, ATP at Km, room temperature, 1 hour, 0.32 to 1000 nM compound. The method in brief: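 IC50 classes A–D use 10, 50 and 100 nM cut-offs, derived from TR-FRET signal inhibition relative to DMSO controls. Human recombinant HPK1 phosphorylated ULight-p70S6K peptide at Km ATP for 1 h, room temperature, pH 7.4; test range 0.32–1000 nM final, detection with Eu-labelled antibody after EDTA quench.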
A general note: TR-FRET usually uses a lanthanide donor and a delayed reading to cut background.

Where a name gives a salt, the structure may show the parent alone.

One may read the IC50 as the concentration that gives 50% inhibition.

T1 sequence (Q92918 whole entry): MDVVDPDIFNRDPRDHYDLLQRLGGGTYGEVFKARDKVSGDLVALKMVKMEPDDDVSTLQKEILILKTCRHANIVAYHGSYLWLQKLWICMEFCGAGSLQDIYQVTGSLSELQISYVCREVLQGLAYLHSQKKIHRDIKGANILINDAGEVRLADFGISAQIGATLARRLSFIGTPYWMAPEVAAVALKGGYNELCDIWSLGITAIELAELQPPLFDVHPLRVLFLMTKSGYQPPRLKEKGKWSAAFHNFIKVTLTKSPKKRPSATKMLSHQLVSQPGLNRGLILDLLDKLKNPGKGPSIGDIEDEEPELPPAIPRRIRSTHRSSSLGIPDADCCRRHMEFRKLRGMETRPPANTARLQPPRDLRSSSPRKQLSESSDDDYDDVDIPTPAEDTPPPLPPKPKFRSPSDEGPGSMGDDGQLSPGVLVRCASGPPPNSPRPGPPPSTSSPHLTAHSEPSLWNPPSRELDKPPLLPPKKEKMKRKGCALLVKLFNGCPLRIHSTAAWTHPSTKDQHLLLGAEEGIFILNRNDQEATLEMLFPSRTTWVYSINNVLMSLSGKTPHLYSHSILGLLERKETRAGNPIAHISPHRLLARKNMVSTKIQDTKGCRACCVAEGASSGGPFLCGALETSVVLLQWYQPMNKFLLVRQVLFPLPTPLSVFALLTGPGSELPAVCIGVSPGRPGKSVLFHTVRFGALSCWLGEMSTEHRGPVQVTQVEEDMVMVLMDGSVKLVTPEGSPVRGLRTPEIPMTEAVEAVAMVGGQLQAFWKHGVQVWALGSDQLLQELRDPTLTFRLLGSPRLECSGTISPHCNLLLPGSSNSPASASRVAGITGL

With `COc1cccc(F)c1-c1nccc(Nc2cc(N3CCC[C@H](O)C3)c(-c3cnn(C4CCOCC4)c3)cn2)n1` [Example 7, (S)-1-(2-((2-(2-fluoro-6-methoxyphenyl)pyrimidin-4-yl)amino)-5-(1-(tetrahydro-2H-pyran-4-yl)-1H-pyrazol-4-yl)pyridin-4-yl)piperidin-3-ol], the IC50 is not above 10 nM. With `COc1cccc(F)c1-c1nccc(Nc2cc(N3CCC[C@H](N)C3)c(-c3cnn(CCO)c3)cn2)n1` [Example 133, (S)-2-(4-(4-(3-aminopiperidin-1-yl)-6-((2-(2-fluoro-6-methoxyphenyl)pyrimidin-4-yl)amino)pyridin-3-yl)-1H-pyrazol-1-yl)ethan-1-ol hydrochloride] the figure was not above 10 nM; with `O[C@H]1CCCN(c2cc(Nc3ccnc(-c4c(F)cccc4F)n3)ncc2-c2cnn(C3CCOCC3)c2)C1` [Example 22, (S)-1-(2-((2-(2,6-difluorophenyl)pyrimidin-4-yl)amino)-5-(1-(tetrahydro-2H-pyran-4-yl)-1H-pyrazol-4-yl)pyridin-4-yl)piperidin-3-ol], not above 10 nM; with `COc1cccc(F)c1-c1nc(Nc2cc(N3CCC[C@H](O)C3)c(-c3cnn(C4CCOCC4)c3)cn2)ccc1C(N)=O` [Example 112, 2-(2-fluoro-6-methoxyphenyl)-6-((4-((S)-3-hydroxypiperidin-1-yl)-5-(1-(tetrahydro-2H-pyran-4-yl)-1H-pyrazol-4-yl)pyridin-2-yl)amino)nicotinamide], not above 10 nM. In the case of `COc1cccc(F)c1-c1nc(Nc2cc(N3CCC[C@H](O)C3)c(-c3cnn(C4CCOCC4)c3)cn2)ccc1C` [Example 58, (3S)-1-(2-((6-(2-fluoro-6-methoxyphenyl)-5-methylpyridin-2-yl)amino)-5-(1-(tetrahydro-2H-pyran-4-yl)-1H-pyrazol-4-yl)pyridin-4-yl)piperidin-3-ol], the half-inhibitory concentration (IC50) is more than 100 nM.

With `COc1cccc(F)c1-c1nc(Nc2cc(N3CCC[C@H](O)C3)c(C(=O)N[C@@H]3CCN(C)C3)cn2)ccc1[N+](=O)[O-]` [Example 203, 6-((6-(2-fluoro-6-methoxyphenyl)-5-nitropyridin-2-yl)amino)-4-((S)-3-hydroxypiperidin-1-yl)-N-((R)-1-methylpyrrolidin-3-yl)nicotinamide], the IC50 is not above 10 nM. `COc1cccc(F)c1-c1nccc(Nc2cc(N3CCC[C@H](N)C3)c(-c3cnn(CC(C)(C)O)c3)cn2)n1` [Example 235, (S)-1-(4-(4-(3-aminopiperidin-1-yl)-6-((2-(2-fluoro-6-methoxyphenyl)pyrimidin-4-yl)amino)pyridin-3-yl)-1H-pyrazol-1-yl)-2-methylpropan-2-ol hydrochloride]: the IC50 is not above 10 nM. Turning to `CNC(=O)c1cc(F)c(-c2nccc(Nc3cc(N4CCC[C@H](N)C4)c(-c4cnn(C(F)F)c4)cn3)n2)c(OC)c1` [Example 186, (S)-4-(4-((4-(3-aminopiperidin-1-yl)-5-(1-(difluoromethyl)-1H-pyrazol-4-yl)pyridin-2-yl)amino)pyrimidin-2-yl)-3-fluoro-5-methoxy-N-methylbenzamide hydrochloride], the IC50 was not above 10 nM. `COc1cccc(F)c1-c1nccc(Nc2cc(N3CCC[C@H](N)C3)c(-c3cccc(C(=O)N(C)C)c3)cn2)n1` [Example 280, (S)-3-(4-(3-aminopiperidin-1-yl)-6-((2-(2-fluoro-6-methoxyphenyl)pyrimidin-4-yl)amino)pyridin-3-yl)-N,N-dimethylbenzamide hydrochloride]: the IC50 was not above 10 nM. In the case of `COc1cccc(F)c1-c1nccc(Nc2cc(N3CC[C@@H](N)[C@@H](F)C3)c(-c3cnn(C(F)F)c3)cn2)n1` [Example 308, N-(4-((3S,4R)-4-amino-3-fluoropiperidin-1-yl)-5-(1-(difluoromethyl)-1H-pyrazol-4-yl)pyridin-2-yl)-2-(2-fluoro-6-methoxyphenyl)pyrimidin-4-amine hydrochloride], the IC50 was not above 10 nM. As for `COc1cc(C=O)cc(F)c1-c1nccc(Nc2cc(N3CCC[C@H](O)C3)c(-c3cnn(C4CCOCC4)c3)cn2)n1` [Example 189, (S)-3-fluoro-4-(4-((4-(3-hydroxypiperidin-1-yl)-5-(1-(tetrahydro-2H-pyran-4-yl)-1H-pyrazol-4-yl)pyridin-2-yl)amino)pyrimidin-2-yl)-5-methoxybenzaldehyde], the IC50 is not above 10 nM.

As for `COc1cccc(F)c1-c1nccc(Nc2cc(N3CCC[C@H](O)C3)c(-c3ccc(CN4CCN(C)CC4)nc3)cn2)n1` [Example 30, (S)-1-(6-((2-(2-fluoro-6-methoxyphenyl)pyrimidin-4-yl)amino)-6′-((4-methylpiperazin-1-yl)methyl)-[3,3′-bipyridin]-4-yl)piperidin-3-ol], the IC50 fell in the range of 10 to 50 nM. For `COc1cccc(F)c1-c1nccc(Nc2cc(N3CCC[C@H](N)C3)c(-c3cnn(C4CNC4)c3)cn2)n1` [Example 168, (S)-N-(4-(3-aminopiperidin-1-yl)-5-(1-(azetidin-3-yl)-1H-pyrazol-4-yl)pyridin-2-yl)-2-(2-fluoro-6-methoxyphenyl)pyrimidin-4-amine hydrochloride] the value was not above 10 nM; for `COc1cccc(F)c1-c1nccc(Nc2cc(N3CCC[C@H](N)C3)c(-c3cn(C)nc3C(F)(F)F)cn2)n1` [Example 131, (S)-N-(4-(3-aminopiperidin-1-yl)-5-(1-methyl-3-(trifluoromethyl)-1H-pyrazol-4-yl)pyridin-2-yl)-2-(2-fluoro-6-methoxyphenyl)pyrimidin-4-amine hydrochloride], 50 to 100 nM. Regarding `COc1cccc(F)c1-c1nccc(Nc2cc(N3CC[C@H](N)[C@@H](F)C3)c(-c3cnn(C(F)F)c3)cn2)n1` [Example 302, N-(4-((3S,4S)-4-amino-3-fluoropiperidin-1-yl)-5-(1-(difluoromethyl)-1H-pyrazol-4-yl)pyridin-2-yl)-2-(2-fluoro-6-methoxyphenyl)pyrimidin-4-amine hydrochloride], the IC50 was not above 10 nM. For `COc1cccc(F)c1-c1nccc(Nc2cc(N3CCC[C@](C)(N)C3)c(-c3cnn(C(F)F)c3)cn2)n1` [Example 206, (S)-N-(4-(3-amino-3-methylpiperidin-1-yl)-5-(1-(difluoromethyl)-1H-pyrazol-4-yl)pyridin-2-yl)-2-(2-fluoro-6-methoxyphenyl)pyrimidin-4-amine hydrochloride], the IC50 is not above 10 nM. In the case of `COCCOc1ccc(-c2cnc(Nc3ccnc(-c4c(F)cccc4OC)n3)cc2N2CCC[C@H](N)C2)cn1` [Example 230, (S)-4-(3-aminopiperidin-1-yl)-N-(2-(2-fluoro-6-methoxyphenyl)pyrimidin-4-yl)-6′-(2-methoxyethoxy)-[3,3′-bipyridin]-6-amine], the IC50 is not above 10 nM. `COc1cccc(F)c1-c1nccc(Nc2cc(N3CCC[C@H](N)C3)c(-c3ccc(N4CCOCC4)cc3)cn2)n1` [Example 286, (S)-N-(4-(3-aminopiperidin-1-yl)-5-(4-morpholinophenyl)pyridin-2-yl)-2-(2-fluoro-6-methoxyphenyl)pyrimidin-4-amine hydrochloride]: the IC50 was not above 10 nM. Turning to `COc1cccc(F)c1-c1nc(Nc2cc(N3CCC[C@H](N)C3)c(C#Cc3cnn(C(F)(F)F)c3)cn2)ccc1[N+](=O)[O-]` [Example 156, 4-((S)-3-aminopiperidin-1-yl)-N-(6-(2-fluoro-6-methoxyphenyl)-5-nitropyridin-2-yl)-5-((1-(trifluoromethyl)-1H-pyrazol-4-yl)ethynyl)pyridin-2-amine hydrochloride], the IC50 was not above 10 nM. Take `COc1cccc(F)c1-c1nc(Nc2cc(N3CCC[C@H](O)C3)c(C(N)=O)cn2)ccc1N` [Example 193, 6-((5-amino-6-(2-fluoro-6-methoxyphenyl)pyridin-2-yl)amino)-4-((S)-3-hydroxypiperidin-1-yl)nicotinamide]: the IC50 was not above 10 nM.

As for `COC(=O)c1ccc(Nc2cc(N3CCC[C@H](N)C3)c(-c3cnn(C4CCOCC4)c3)cn2)nc1-c1c(F)cccc1OC` [Example 71, methyl 6-((4-((S)-3-aminopiperidin-1-yl)-5-(1-(tetrahydro-2H-pyran-4-yl)-1H-pyrazol-4-yl)pyridin-2-yl)amino)-2-(2-fluoro-6-methoxyphenyl)nicotinate hydrochloride], the IC50 was not above 10 nM. For the compound `COc1cccc(F)c1-c1nccc(Nc2cc(N3C[C@@H](N)C[C@H](F)C3)c(-c3cnn(C(F)F)c3)cn2)n1` [Example 304, N-(4-((3S,5S)-3-amino-5-fluoropiperidin-1-yl)-5-(1-(difluoromethyl)-1H-pyrazol-4-yl)pyridin-2-yl)-2-(2-fluoro-6-methoxyphenyl)pyrimidin-4-amine hydrochloride], the IC50 is not above 10 nM. Take `COC(=O)C(C)(C)n1cc(-c2cnc(Nc3ccnc(-c4c(F)cccc4OC)n3)cc2N2CCC[C@H](N)C2)cn1` [Example 278, methyl (S)-2-(4-(4-(3-aminopiperidin-1-yl)-6-((2-(2-fluoro-6-methoxyphenyl)pyrimidin-4-yl)amino)pyridin-3-yl)-1H-pyrazol-1-yl)-2-methylpropanoate hydrochloride]: the IC50 is not above 10 nM. For the compound `COc1cccc(F)c1-c1nccc(Nc2cc(N3CCC[C@H](O)C3)c(-c3cnn(C4CC(C)(C)OC(C)(C)C4)c3)cn2)n1` [Example 264, (S)-1-(2-((2-(2-fluoro-6-methoxyphenyl)pyrimidin-4-yl)amino)-5-(1-(2,2,6,6-tetramethyltetrahydro-2H-pyran-4-yl)-1H-pyrazol-4-yl)pyridin-4-yl)piperidin-3-ol], the IC50 is not above 10 nM. For the compound `COc1cc(F)cc(F)c1-c1nccc(Nc2cc(N3CCC[C@H](N)C3)c(C#Cc3cnn(C(F)(F)F)c3)cn2)n1` [Example 159, (S)-N-(4-(3-aminopiperidin-1-yl)-5-((1-(trifluoromethyl)-1H-pyrazol-4-yl)ethynyl)pyridin-2-yl)-2-(2,4-difluoro-6-methoxyphenyl)pyrimidin-4-amine hydrochloride], the IC50 was not above 10 nM.
